Assays:
maltase = assay: Glycosidase inhibitory activity test, maltase; type: biochemical
Excerpt: (§1) 8) Glycosidase Inhibitory Activity Test
(§2) Determined via a method whereby α-amylase, maltase, and sucrase inhibitory activities were all disclosed in the abovementioned report (Non-Patent Document 1).

sucrase = sucrase (Homo sapiens, UniProt P14410); assay: Glycosidase inhibitory activity test, sucrase; type: biochemical
Excerpt: as §1, §2

α-amylase = assay: Glycosidase inhibitory activity test, amylase; type: biochemical
Excerpt: as §1, §2

[1] = system: blood glucose level after maltose-loading; assay: Hyperglycemic inhibitory action after maltose-loading in rat; type: in vivo, SD (IGS) rat; conditions: for ΔAUC of blood glucose / ΔCmax of blood glucose: maltose 1 g/kg gavage
Excerpt: • 1) Test Substance: With regard to TCAA, Yacon hot water extract was passed through an HP-20 column chromatograph, then eluted with water, and finally eluted with 50% methanol to obtain a polyphenol fraction. This fraction was separated by being passed through a Sephadex LH-20, and eluted with 40% methanol/water, so that the total amount of TCAA contained therein was recovered during confirmation of TCAA with HPLC. Then, the rough TCAA fraction was passed through a HW-40 column chromatograph, separated with 40% methanol/water during confirmation of TCAA with HPLC in a similar manner, and components other than TCAA were removed. […] Moreover, the maltose employed was purchased from Wako Pure Chemical Industries, Ltd. • 2) Animals: One group of five SD (IGS) 7 week old male rats was employed. 2. Experimental Method • 1) Configuration of the Treatment Group • (1) Control Group (Maltose Only) • (2) Maltose+TCAA (600 mg/kg×2) • (3) Maltose+TCAA (300 mg/kg×2) • (4) Maltose+TCAA (150 mg/kg×2) • 2) Preparation of Test Substance
Maltose was weighed to an amount of 1.5 g, dissolved in 15 ml of distilled water, and administered by gavage at a dosage of 1 g/10 ml/kg. Then TCAA was administered in two doses, a first dosage in which it was administered in a maltose solution, and then a second dosage in which it was dissolved in distilled water, with both dosages being at ratios of 150 mg/10 ml, 300 mg/10 ml, and 600 mg/10 ml, respectively, and administration thereof by gavage at a dosage of 10 ml/kg.
After blood samples were collected from rats that fasted for 17 hours prior to administration of the test substance (0 time), the test substance was administered. Fifteen minutes later the second dosage was administered, with blood samples being taken soon thereafter (specifically, 15 minutes later), 30 minutes thereafter, 45 minutes thereafter, 60 minutes thereafter, 90 minutes thereafter, and 120 minutes thereafter, respectively, and then blood glucose levels being measured with a Glucocard (Aventis Pharma, Limited).
When measuring blood glucose levels at the times that each of the samples were collected, the change in blood glucose (A) was calculated by subtracting the blood glucose level prior to the administration (0 time) from the blood glucose levels after the administration of the test substance, and determining the maximum serum concentration (ΔCMAX) and area under the blood glucose curve (ΔAUC).
The blood glucose values obtained by the present experiment were averaged, the standard error of the mean was calculated, and a two-group comparison was made with the control group. The statistical test method was via the Bartlett method, with the variance of the measured values being statistically verified within a 95% confidence limit, and the Student's t-test only being conducted in cases of equal variance, to determine that p<0.05 was a statistically significant change.

[2] = system: Lipid Peroxidation (brain homogenate auto-oxidation); assay: Brain homogenate auto-oxidation test (lipid peroxide production inhibition, thiobarbituric acid method); type: biochemical; conditions: for IC50: value in parentheses, read-out: Inhibitory Activities on Lipid Peroxidation IC50
Excerpt: [formula] Moreover, f: Purity of reference standard (%)/100 6) Brain Homogenate Auto-oxidation Test
Determined via a thiobarbituric acid method that was based on the method of Ohkawa, et al. (Reference Document 2)

[3] = 1,1-Diphenyl-2-picrylhydrazyl (DPPH) radical scavenging test; conditions: for EC50: value in parentheses, read-out: DPPH Radical Scavenging Activities EC50
Excerpt: 7) 1,1-Diphenyl-2-picrylhydrazyl (DPPH) Radical Scavenging Test
Determined based on the method of Blois, et al. (Reference Document 3)

[4] = TCAA 150 mg/kg × 2, mean ± SE, n = 5
[5] = TCAA 300 mg/kg × 2, mean ± SE, n = 5
[6] = comparative molar concentrations

Chain of sucrase (P14410 whole entry, species assumed): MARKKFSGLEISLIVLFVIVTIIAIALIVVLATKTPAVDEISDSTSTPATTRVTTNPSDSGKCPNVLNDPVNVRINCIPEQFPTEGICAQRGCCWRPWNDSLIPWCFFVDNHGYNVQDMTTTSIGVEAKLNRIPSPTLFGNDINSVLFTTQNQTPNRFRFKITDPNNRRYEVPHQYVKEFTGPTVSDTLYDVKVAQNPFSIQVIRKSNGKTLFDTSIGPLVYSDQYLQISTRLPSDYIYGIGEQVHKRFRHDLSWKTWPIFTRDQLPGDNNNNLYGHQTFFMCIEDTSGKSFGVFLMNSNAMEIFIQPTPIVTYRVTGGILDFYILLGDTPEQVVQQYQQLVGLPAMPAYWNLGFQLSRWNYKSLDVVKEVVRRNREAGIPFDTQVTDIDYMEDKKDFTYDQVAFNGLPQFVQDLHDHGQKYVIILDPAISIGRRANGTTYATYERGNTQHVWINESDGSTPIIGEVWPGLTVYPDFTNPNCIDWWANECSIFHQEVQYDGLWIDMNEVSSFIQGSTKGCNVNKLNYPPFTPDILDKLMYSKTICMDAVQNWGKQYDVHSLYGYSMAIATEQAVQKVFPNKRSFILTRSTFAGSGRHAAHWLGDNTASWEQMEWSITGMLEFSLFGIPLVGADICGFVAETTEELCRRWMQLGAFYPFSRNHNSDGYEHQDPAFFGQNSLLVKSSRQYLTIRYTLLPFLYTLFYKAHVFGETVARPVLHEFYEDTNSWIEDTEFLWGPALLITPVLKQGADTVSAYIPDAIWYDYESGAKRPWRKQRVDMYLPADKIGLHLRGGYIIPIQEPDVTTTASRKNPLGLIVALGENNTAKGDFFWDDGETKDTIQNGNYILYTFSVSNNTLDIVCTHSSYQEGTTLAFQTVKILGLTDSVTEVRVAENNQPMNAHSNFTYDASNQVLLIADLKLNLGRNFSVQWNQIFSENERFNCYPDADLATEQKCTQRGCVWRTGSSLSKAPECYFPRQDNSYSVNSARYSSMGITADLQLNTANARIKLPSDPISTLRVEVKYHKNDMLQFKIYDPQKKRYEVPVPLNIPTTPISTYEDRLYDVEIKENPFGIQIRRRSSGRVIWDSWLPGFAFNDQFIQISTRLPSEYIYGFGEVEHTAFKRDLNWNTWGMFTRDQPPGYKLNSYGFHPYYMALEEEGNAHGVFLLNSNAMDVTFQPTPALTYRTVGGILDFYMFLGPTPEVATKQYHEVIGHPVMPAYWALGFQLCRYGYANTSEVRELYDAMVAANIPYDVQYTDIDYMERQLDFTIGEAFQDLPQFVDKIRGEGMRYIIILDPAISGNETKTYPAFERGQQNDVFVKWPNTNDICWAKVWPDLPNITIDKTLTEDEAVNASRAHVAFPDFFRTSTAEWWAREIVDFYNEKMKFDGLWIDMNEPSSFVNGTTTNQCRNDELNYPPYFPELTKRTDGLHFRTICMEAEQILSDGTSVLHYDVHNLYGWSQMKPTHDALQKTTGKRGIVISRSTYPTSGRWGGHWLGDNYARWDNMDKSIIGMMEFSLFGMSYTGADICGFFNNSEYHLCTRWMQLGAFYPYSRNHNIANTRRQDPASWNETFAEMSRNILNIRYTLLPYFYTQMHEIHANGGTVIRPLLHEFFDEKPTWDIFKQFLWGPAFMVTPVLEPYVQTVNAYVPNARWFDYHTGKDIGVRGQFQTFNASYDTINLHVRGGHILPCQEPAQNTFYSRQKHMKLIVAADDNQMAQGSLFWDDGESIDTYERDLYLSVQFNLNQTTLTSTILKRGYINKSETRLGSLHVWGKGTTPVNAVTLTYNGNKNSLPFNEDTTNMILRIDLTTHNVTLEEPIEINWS

Compound	Inhibitory Activities on Lipid Peroxidation IC50 [2] [µg/mL]	IC50 [2] [µM]	DPPH Radical Scavenging Activities EC50 [3] [µg/mL]	EC50 [3] [µM]	other results
2,3,5-tricaffeoylaltraric acid, or 2,4,5-tricaffeoylaltraric acid [TCAA]	0.49	0.7	0.69	0.99	maltase inhibitory activity IC50 (maltase; TCAA isolated in Example 1): 49 µg/mL; maltase inhibitory activity IC50 (maltase; TCAA test substance of Example 4, purity 91%): 61 µg/mL; maltase inhibitory activity compared to an acarbose control (maltase; fraction of acarbose activity): 1/19; sucrase inhibitory activity IC50 (sucrase): > 1000 µg/mL; amylase inhibitory activity IC50 (α-amylase): 420 µg/mL; blood glucose 90 minute values compared to control group ([1]; 600 mg/kg TCAA group): obvious increase; increase in blood glucose via maltose-loading at 15 minutes ([1]; each TCAA dosage group (150, 300, 600 mg/kg × 2) vs control, p<0.01): significantly inhibited; ΔAUC of blood glucose [1, 4]: 5834 ± 484 mg·min/dL; ΔCmax of blood glucose [1, 4]: 86 ± 9 mg/dL; ΔAUC of blood glucose [1, 5]: 5456 ± 249 mg·min/dL; ΔCmax of blood glucose [1, 5]: 84 ± 5 mg/dL; ΔAUC of blood glucose ([1]; TCAA 600 mg/kg × 2, mean ± SE, n = 5): 5495 ± 300 mg·min/dL; ΔCmax of blood glucose ([1]; TCAA 600 mg/kg × 2, mean ± SE, n = 5, p < 0.05 vs control): 73 ± 3 mg/dL; lipid peroxide production inhibitory activity, times greater than that of (±)-catechin [2, 6]: 68 times; lipid peroxide production inhibitory activity, times greater than that of ellagic acid [2, 6]: 2.5 times
O=C(/C=C/c1ccc(O)c(O)c1)O[C@@H]1[C@H](O)C[C@@](O)(C(=O)O)C[C@H]1OC(=O)/C=C/c1ccc(O)c(O)c1 [3,4-DCQA, 3,4-dicaffeoylquinic acid]	1.48	2.87	0.91	1.76	
O=C(/C=C/c1ccc(O)c(O)c1)O[C@@H]1C[C@](O)(C(=O)O)C[C@@H](OC(=O)/C=C/c2ccc(O)c(O)c2)[C@H]1O [3,5-DCQA]	2.18	4.23	0.87	1.69	
O=C(/C=C/c1ccc(O)c(O)c1)O[C@H]1[C@H](O)C[C@](O)(C(=O)O)C[C@H]1OC(=O)/C=C/c1ccc(O)c(O)c1 [4,5-DCQA]	3.38	6.55	0.89	1.72	
O=C(O)/C=C/c1ccc(O)c(O)c1 [caffeic acid]	9.97	55.3	4.39	24.3	
O=C(/C=C/c1ccc(O)c(O)c1)O[C@@H]1C[C@](O)(C(=O)O)C[C@@H](O)[C@H]1O [chlorogenic acid]	13.21	37.3			
O=c1oc2c(O)c(O)cc3c(=O)oc4c(O)c(O)cc1c4c23 [ellagic acid]	0.56	1.85	0.51	1.69	
Cc1c(C)c2c(c(C)c1O)CC[C@@](C)(CCC[C@H](C)CCC[C@H](C)CCCC(C)C)O2 [α-tocopherol]	71.24	166	5.65	13.1	
(±)-catechin	13.69	47.2	1.56	5.37	
